Test results taken from ChEMBL document CHEMBL1148527, “Structure-based design of spiro-oxindoles as potent, specific small-molecule inhibitors of the MDM2-p53 interaction” (J Med Chem, 2006).

Key:
Bcl-2-like protein 1 = Bcl-2-like protein 1 (Homo sapiens, UniProt Q07817); assay: Displacement of Flu-Bid from human recombinant Bcl-xL receptor
[1] = biological target: Apoptosis regulator Bcl-2 (Homo sapiens, UniProt P10415); assay: Displacement of Flu-Bid from human recombinant Bcl2 receptor
Apoptosis regulator Bcl-2, sequence (P10415 whole entry): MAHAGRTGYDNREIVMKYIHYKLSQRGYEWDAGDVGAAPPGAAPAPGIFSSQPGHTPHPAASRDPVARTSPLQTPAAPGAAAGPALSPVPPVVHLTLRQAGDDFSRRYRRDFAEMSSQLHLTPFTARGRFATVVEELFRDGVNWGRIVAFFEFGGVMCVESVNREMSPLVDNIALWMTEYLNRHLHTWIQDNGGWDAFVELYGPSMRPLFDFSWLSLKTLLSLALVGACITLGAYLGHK

Bcl-2-like protein 1, sequence (Q07817 whole entry): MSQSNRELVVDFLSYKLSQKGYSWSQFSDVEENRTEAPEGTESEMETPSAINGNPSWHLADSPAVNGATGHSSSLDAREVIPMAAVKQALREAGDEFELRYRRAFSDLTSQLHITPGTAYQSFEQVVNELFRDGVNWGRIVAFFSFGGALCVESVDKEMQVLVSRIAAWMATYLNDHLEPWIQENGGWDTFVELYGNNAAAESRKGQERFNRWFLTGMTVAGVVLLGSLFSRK

CC(C)(C)C[C@H]1N[C@@H](C(=O)NCCN2CCOCC2)[C@H](c2cccc(Cl)c2F)[C@@]12C(=O)Nc1cc(Cl)ccc12
IC50 (Bcl-2-like protein 1): > 50 µM | IC50 [1]: > 50 µM
